Test results published in the supplement of paper PMC11061612.

Columns and labels:
Assay in all cases: Bliss excess, mean over the matrix (fraction); higher = more synergy
[1] = test system: COR-L23 (Non-Small Cell Lung Carcinoma)
In short: (§1)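 Bliss excess equals the observed combination effect minus the expected value EA + EB − EA·EB, where EA and EB are the effects of each agent alone. Combination Emax is the second-highest inhibition within the matrix. Inhibition was scaled from CellTiter-Glo 2.0 luminescence, with 0 set by vehicle wells and 1 by blank wells, after 72 hours of two-drug dosing of cells plated in 1536-well plates.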

[2] = test system: CTV-1 (T-Lymphoblastic Leukemia)
In short: as §1

[3] = test system: DB (B-Cell Non-Hodgkin's Lymphoma)
In short: as §1

[4] = test system: DMS-273 (Small Cell Lung Carcinoma)
In short: as §1

[5] = test system: DOV13 (Ovarian Carcinoma)
In short: as §1

DSH1 (Bladder Carcinoma) = test system: DSH1 (Bladder Carcinoma)
In short: as §1

[6] = test system: EM-2 (Chronic Myelogenous Leukemia)
In short: as §1

[7] = test system: HCC2157 (Breast Carcinoma)
In short: as §1

[8] = test system: HPAC (Pancreatic Carcinoma)
In short: as §1

[9] = test system: HT-29 (Colorectal Carcinoma)
In short: as §1

[10] = test system: LU-99A (Non-Small Cell Lung Carcinoma)
In short: as §1

[11] = test system: NALM-6 (B-Lymphoblastic Leukemia)
In short: as §1

SK-N-FI (Neuroblastoma) = test system: SK-N-FI (Neuroblastoma)
In short: as §1

SN12C (Kidney Carcinoma) = test system: SN12C (Kidney Carcinoma)
In short: as §1

[12] = test system: SNU-C5 (Colorectal Carcinoma)
In short: as §1

[13] = test system: SUIT-2 (Pancreatic Carcinoma)
In short: as §1

[14] = test system: SW1088 (Low Grade Glioma)
In short: as §1

[15] = test system: SW780 (Bladder Carcinoma)
In short: as §1

[16] = test system: TE-5 (Esophageal Squamous Cell Carcinoma)
In short: as §1

[17] = test system: U-266 (Plasma Cell Myeloma)
In short: as §1

| SMILES | Bliss excess [1] | Bliss excess [2] | Bliss excess [3] | Bliss excess [4] | Bliss excess [5] | Bliss excess (DSH1 (Bladder Carcinoma)) | Bliss excess [6] | Bliss excess [7] | Bliss excess [8] | Bliss excess [9] | Bliss excess [10] | Bliss excess [11] | Bliss excess (SK-N-FI (Neuroblastoma)) | Bliss excess (SN12C (Kidney Carcinoma)) | Bliss excess [12] | Bliss excess [13] | Bliss excess [14] | Bliss excess [15] | Bliss excess [16] | Bliss excess [17] |
| --- | --- | --- | --- | --- | --- | --- | --- | --- | --- | --- | --- | --- | --- | --- | --- | --- | --- | --- | --- | --- |
| NC1(C(=O)N[C@@H](CCO)c2ccc(Cl)cc2)CCN(c2ncnc3[nH]ccc23)CC1 [Capivasertib] + CC(C)n1c(=O)n(C)c2cnc3cc(F)c(-c4ccc(OCCCN5CCCCC5)nc4)cc3c21 [AZD1390] (first compound max 10 µM, 7x7, partner max 0.3 µM) | -0.0579 | -0.0908 | -0.0494 | -0.0281 | -0.0407 | -0.0895 | -0.0446 | 0.002 | -0.0699 | -0.0376 | -0.0962 | -0.0863 | -0.0588 | -0.0454 | -0.052 | -0.0441 | -0.0822 | -0.0715 | -0.0254 | -0.101 |
| C[C@@H](c1ccc2nccn2c1)n1nnc2ncc(-c3cnn(C)c3)nc21 [Savolitinib] + CC1(C)CCC(CN2CCN(c3ccc(C(=O)NS(=O)(=O)c4ccc(NCC5CCOCC5)c([N+](=O)[O-])c4)c(Oc4cnc5[nH]ccc5c4)c3)CC2)=C(c2ccc(Cl)cc2)C1 [Venetoclax] (first compound max 1 µM, 7x7, partner max 1 µM) | -0.0457 | -0.0245 | 0.0216 | -0.0398 | -0.0552 | 0 | -0.0593 | 0.0068 | -0.084 | -0.0358 | -0.0746 | 0.01 | -0.0537 | -0.0152 | -0.0596 | -0.0737 | -0.0115 | -0.0671 | -0.0557 | -0.0118 |
| Cn1cnc2c(F)c(Nc3ccc(Br)cc3Cl)c(C(=O)NOCCO)cc21 [Selumetinib] + CCN(CCO)CCCOc1ccc2c(Nc3cc(CC(=O)Nc4cccc(F)c4)[nH]n3)ncnc2c1 [AZD2811] (first compound max 10 µM, 7x7, partner max 1 µM) | 0.0428 | 0.0436 | -0.125 | -0.0144 | -0.0915 | 0.0022 | -0.0526 | 0.0194 | 0.0816 | -0.0042 | -0.0383 | 0.0318 | 0.0239 | -0.0444 | 0.038 | -0.0526 | -0.0456 | -0.0198 | -0.0191 | 0.0128 |
| CN(CCO)CC[C@H](CSc1ccccc1)Nc1ccc(S(=O)(=O)NC(=O)c2ccc(N3CCC([C@@H](O)c4ccccc4-c4ccc(Cl)cc4)CC3)cc2)cc1S(=O)(=O)C(F)(F)F [AZD4320] + C[C@@H]1COCCN1C2=NC(=NC(=C2)C3(CC3)[S@](=N)(=O)C)C4=C5C=CNC5=NC=C4 [AZD6738] (first compound max 1 µM, 7x7, partner max 10 µM) | -0.0468 | -0.0498 | 0.0249 | -0.025 | -0.0448 | 0.0405 | 0.005 | 0.0014 | -0.007 | -0.0073 | -0.0464 | 0.0379 | -0.0299 | -0.0499 | -0.0131 | -0.098 | -0.0732 | -0.0478 | 0.0256 | -0.0133 |
| CCN(CCO)CCCOc1ccc2c(Nc3cc(CC(=O)Nc4cccc(F)c4)[nH]n3)ncnc2c1 [AZD2811] + O=C(c1cc(Cc2n[nH]c(=O)c3ccccc23)ccc1F)N1CCN(C(=O)C2CC2)CC1 [Olaparib] (first compound max 1 µM, 7x7, partner max 10 µM) | -0.016 | 0.0712 | -0.0544 | -0.0044 | -0.0824 | 0.0082 | -0.0589 | -0.0105 | 0.0032 | 0.0007 | -0.0181 | -0.0086 | -0.0001 | 0.0151 | -0.0041 | -0.0254 | -0.0539 | 0.02 | -0.0181 | -0.0139 |
| Cc1c2c(nn1C)CSCc1cc(n(C)n1)CSc1cc(c3ccccc3c1)OCCCc1c(C(=O)O)n(C)c3c-2c(Cl)ccc13 [AZD5991] + C1CN(CCC1(C(=O)N[C@@H](CCO)C2=CC=C(C=C2)Cl)N)C3=NC=NC4=C3C=CN4 [Capivasertib] (first compound max 1 µM, 7x7, partner max 3 µM) | -0.0161 | 0.0027 | 0.0079 | -0.0524 | 0.0055 | 0.001 | -0.0149 | -0.0488 | -0.0239 | -0.0114 | -0.0247 | 0.0149 | 0.0211 | -0.0239 | 0.0007 | -0.0304 | -0.0562 | -0.011 | 0.0141 | 0.0662 |
| Cn1cnc2c(F)c(Nc3ccc(Br)cc3Cl)c(C(=O)NOCCO)cc21 [Selumetinib] + C[C@@H]1COCCN1C2=NC(=NC(=C2)C3(CC3)[S@](=N)(=O)C)C4=C5C=CNC5=NC=C4 [AZD6738] (first compound max 10 µM, 7x7, partner max 10 µM) | -0.0148 | -0.001 | -0.0353 | -0.0676 | -0.11 | -0.0734 | 0.0264 | 0.0059 | -0.0015 | -0.019 | 0.0565 | -0.0063 | 0.0325 | -0.0169 | 0.0751 | 0.0298 | -0.0737 | 0.0087 | -0.0388 | -0.0303 |
| CC1(C)CCC(CN2CCN(c3ccc(C(=O)NS(=O)(=O)c4ccc(NCC5CCOCC5)c([N+](=O)[O-])c4)c(Oc4cnc5[nH]ccc5c4)c3)CC2)=C(c2ccc(Cl)cc2)C1 [Venetoclax] + C[C@@H](Nc1cc(F)cc(F)c1)c1cc(C(=O)N(C)C)cc2c(=O)cc(N3CCOCC3)oc12 [AZD8186] (first compound max 1 µM, 7x7, partner max 3 µM) | -0.0328 | 0.0057 | -0.0332 | 0.0274 | -0.0073 | 0.002 | 0.0104 | 0.115 | -0.0029 | -0.0255 | -0.0412 | 0.0348 | -0.0178 | -0.0777 | -0.0308 | -0.0481 | -0.0044 | -0.0135 | -0.0327 | 0.0357 |
| NC1(C(=O)N[C@@H](CCO)c2ccc(Cl)cc2)CCN(c2ncnc3[nH]ccc23)CC1 [Capivasertib] + CC(=O)c1c(C)c2cnc(Nc3ccc(N4CCNCC4)cn3)nc2n(C2CCCC2)c1=O [Palbociclib] (first compound max 10 µM, 7x7, partner max 10 µM) | -0.0252 | 0.0198 | 0.0453 | -0.0309 | 0.0055 | -0.0395 | -0.0552 | -0.0052 | 0.0004 | 0.0086 | -0.0189 | -0.0107 | -0.0581 | -0.0265 | -0.0112 | -0.0047 | 0.0361 | -0.0119 | 0.0142 | -0.0606 |
| CCN(CCO)CCCOc1ccc2c(Nc3cc(CC(=O)Nc4cccc(F)c4)[nH]n3)ncnc2c1 [AZD2811] + C[C@@H]1COCCN1C2=NC(=NC(=C2)C3(CC3)[S@](=N)(=O)C)C4=C5C=CNC5=NC=C4 [AZD6738] (first compound max 1 µM, 7x7, partner max 10 µM) | -0.0192 | 0.0009 | -0.0302 | -0.0332 | -0.0619 | 0.02 | -0.0433 | -0.0704 | -0.0244 | -0.0459 | -0.0732 | -0.0435 | -0.0625 | -0.0641 | -0.0418 | -0.0307 | -0.103 | -0.0262 | -0.0582 | -0.0532 |
| CC1(C)CCC(CN2CCN(c3ccc(C(=O)NS(=O)(=O)c4ccc(NCC5CCOCC5)c([N+](=O)[O-])c4)c(Oc4cnc5[nH]ccc5c4)c3)CC2)=C(c2ccc(Cl)cc2)C1 [Venetoclax] + C=CCn1c(=O)c2cnc(Nc3ccc(N4CCN(C)CC4)cc3)nc2n1-c1cccc(C(C)(C)O)n1 [AZD1775] (first compound max 1 µM, partner max 1 µM) | -0.0609 | -0.0327 | 0.0119 | -0.0711 | 0.131 | -0.0476 | -0.0094 | -0.0554 | -0.0565 | 0.008 | -0.0533 | 0.119 | -0.0076 | 0 | -0.0339 | -0.0295 | -0.003 | -0.0244 | -0.0412 | 0.104 |
| CN(C)CCCOc1ccc(-c2ccc3ncc4c(c3c2)n(C2CCOCC2)c(=O)n4C)cn1 [AZD0156] + C=CCn1c(=O)c2cnc(Nc3ccc(N4CCN(C)CC4)cc3)nc2n1-c1cccc(C(C)(C)O)n1 [AZD1775] (first compound max 1 µM, partner max 1 µM) | 0.0047 | -0.0169 | -0.0119 | -0.0142 | -0.0523 | 0.0236 | -0.0548 | -0.0233 | -0.0284 | -0.0411 | -0.0422 | 0.0093 | -0.0308 | -0.0717 | -0.0296 | 0.0011 | -0.0738 | -0.0311 | -0.0388 | 0.0168 |
| COc1cc2c(cc1OCCCCCOc1cc3c(cc1OC)C(=O)N1C=C(C)C[C@H]1C=N3)N=C[C@@H]1CC(C)=CN1C2=O [SG3199] + O=C(c1cc(Cc2n[nH]c(=O)c3ccccc23)ccc1F)N1CCN(C(=O)C2CC2)CC1 [Olaparib] (first compound max 0.001 µM, 7x7, partner max 10 µM) | 0.0285 | -0.013 | -0.0272 | 0.002 | -0.0443 | -0.0442 | 0.0107 | 0.0277 | -0.0232 | -0.0261 | -0.0672 | -0.0302 | -0.0296 | -0.0697 | -0.0362 | -0.0029 | -0.0511 | -0.0497 | -0.0665 | -0.0601 |
| Cc1c2c(nn1C)CSCc1cc(n(C)n1)CSc1cc(c3ccccc3c1)OCCCc1c(C(=O)O)n(C)c3c-2c(Cl)ccc13 [AZD5991] + C[C@@H]1COCCN1C2=NC(=NC(=C2)C3(CC3)[S@](=N)(=O)C)C4=C5C=CNC5=NC=C4 [AZD6738] (first compound max 1 µM, 7x7, partner max 10 µM) | -0.0121 | 0.0021 | 0.0042 | 0.0196 | 0.0005 | 0.0241 | 0.0299 | 0.0155 | 0.0409 | 0.0165 | -0.0152 | -0.0114 | -0.0554 | -0.0144 | -0.011 | -0.0025 | -0.0048 | 0.0324 | -0.0294 | 0.0624 |
